From patent US11725015B2, “Macrocyclic compound and uses thereof” (President and Fellows of Harvard College, priority 2017, dated 2023) come the findings set out here.

SMILES strings stand for the structures.

The test system of one assay is EDA-fibronectin. The assay is described as follows: Effect on EDA-fibronectin in the FaDu subcutaneous model in mice. The assay is classed as in vivo. The following applies: Compound (1) 180 μg/kg + CTX 10 mg/kg on Day 1, five days after, compared with control tumors. As for the experimental part: A human squamous cell carcinoma of the head and neck (SCCHN) cell line FaDu, which had been cultured in an RPMI-1640 medium containing 10% FBS, and penicillin-streptomycin (culture medium), was adjusted to a concentration of 5×10^7 cells/mL with culture medium to prepare a cell suspension. The cell suspension was inoculated in a volume of 100 μL into a subcutaneous part of a right flank of nude mice, 6 weeks of ages (CAnN.Cg-Foxnlnu/CrlCrlj, female, Charles River Laboratories Japan, Inc.). Ten days after cell inoculation, the mice were grouped such that averages of the tumor volumes were substantially equal among the groups. The experiment was conducted on groups each consisting of 5 mice. Compound (1) was dissolved in DMSO and a solution was stored in the freezer before use. […] Five days after the single administration, tumor samples were collected and fixed with IHC Zinc Fixative (BD Pharmingen) at 4° C. for 24 hr. Paraffin-embedded tissues were sectioned (3 μm), mounted on positively charged slides, and air-dried. Sections were deparaffinized, conditioned and the antigens were retrieved using microwave with 1 mM EDTA at pH 6.0 for Tenascin-C. For EDA-fibronectin, the antigens retrieval procedure was not necessary. […]

The subject of assay [1] is human breast cancer cell line MDA-MB231. The assay is described as follows: MDA-MB231 growth inhibition assay. The assay is classed as cell-based. The conditions noted are these: 3 days incubation, CellTiter-Glo. As for the experimental part:
In this assay, the growth inhibitory activity of test compounds in a human breast cancer cell line MDA-MB231 was measured. MDA-MB231 cells were maintained in Dulbecco's Modified Eagle's medium (Wako Pure Chemical Industries, Ltd., 044-29765) medium containing 10% fetal bovine serum (FBS: Nichirei, 12D168), and penicillin and streptomycin in a 5% CO2 incubator (37° C.). To each well of a 96 well plate (Becton, Dickinson and Company, 353219), 75 μL of MDA-MB231 cell suspension adjusted to a concentration of 4×10^4 cells/mL with the culture medium was added, and the cells were incubated overnight in a 5% CO2 incubator (37° C.). On the next day, 25 μL of Compound (1) or Halichondrin B in three-fold dilution series suspended in the culture medium was added to each well, and the resultant was incubated for 3 days in a 5% CO2 incubator (37° C.). Then, cell viability was determined by CellTiter-Glo® Luminescent Cell Viability Assay (Promega) with EnVision 2103 Multilabel Reader (Perkin-Elmer, Wellesley, Mass.). Value of the wells containing cells without adding the test compounds was defined as 100% and the value of the wells containing no cells was defined as 0%. The concentration of the test compound necessary for inhibiting the cell growth by 50% (i.e., an IC50 value) was calculated, and shown in Table 2.
For orientation: In ATP-based viability assays light output follows the ATP content of the culture.

Assay [2] addresses T1, tubulin protein purified from porcine brain (Sus scrofa, UniProt P02550+P02554).
T1 construct: lyophilized tubulin protein purified from porcine brain; purchased Cytoskeleton, Inc. BK011P; host or cells: porcine brain (tissue-purified)
The assay is described as follows: Cell-free tubulin polymerization assay. The conditions noted are these: final concentrations 0.625-10 μmol/L. It counts as biochemical. The method, then:
Tubulin Polymerization Assay kit was purchased from Cytoskeleton, Inc. (Cat. #BK011P). The kit contained 1 bottle of lyophilized tubulin protein purified from porcine brain, 3 tubes of lyophilized GTP, 2 bottles of lyophilized assay buffer, and 1 bottle of tubulin glycerol buffer. Assay buffer was prepared by dissolving the contents in 10 mL of deionized and sterilized water. This solution contained 80 mmol/L piperazine-N,N′-bis[2-ethanesulfonic acid] sesquisodium salt, 2.0 mmol/L magnesium chloride, 0.5 mmol/L ethylene glycol-bis(2-amino-ethyl ether) N,N,N′,N′-tetra-acetic acid, pH 6.9, and 10 μmol/L fluorescent reporter. The buffer was stored at −70° C. until use. […]
In the tubulin polymerization assay, reaction mixture was prepared by mixing 820 μL of assay buffer, 17.6 μL of GTP stock solution, and 600 μL of tubulin glycerol buffer. […] Fluorescence emission at 460 nm (excitation wavelength at 360 nm) was measured every 2 minutes for 90 minutes using the SpectraMax® M5e microplate reader (Molecular Devices). Tubulin polymerization was followed by fluorescence enhancement due to the incorporation of a fluorescence reporter into microtubules as polymerization occurred. […]

T1 sequence (P02554 whole entry): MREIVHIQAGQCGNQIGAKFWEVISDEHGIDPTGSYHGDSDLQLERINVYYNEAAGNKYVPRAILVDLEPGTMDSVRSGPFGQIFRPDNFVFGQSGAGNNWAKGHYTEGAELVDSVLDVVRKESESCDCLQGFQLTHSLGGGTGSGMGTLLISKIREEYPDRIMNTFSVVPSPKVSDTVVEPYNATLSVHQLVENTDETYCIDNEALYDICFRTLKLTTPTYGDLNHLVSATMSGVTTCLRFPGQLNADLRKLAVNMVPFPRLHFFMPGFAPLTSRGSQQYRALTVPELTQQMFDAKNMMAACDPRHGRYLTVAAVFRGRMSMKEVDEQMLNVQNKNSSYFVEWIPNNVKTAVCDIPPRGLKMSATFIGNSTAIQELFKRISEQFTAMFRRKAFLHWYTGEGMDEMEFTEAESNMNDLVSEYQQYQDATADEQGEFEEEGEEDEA
T1 sequence (P02550 whole entry): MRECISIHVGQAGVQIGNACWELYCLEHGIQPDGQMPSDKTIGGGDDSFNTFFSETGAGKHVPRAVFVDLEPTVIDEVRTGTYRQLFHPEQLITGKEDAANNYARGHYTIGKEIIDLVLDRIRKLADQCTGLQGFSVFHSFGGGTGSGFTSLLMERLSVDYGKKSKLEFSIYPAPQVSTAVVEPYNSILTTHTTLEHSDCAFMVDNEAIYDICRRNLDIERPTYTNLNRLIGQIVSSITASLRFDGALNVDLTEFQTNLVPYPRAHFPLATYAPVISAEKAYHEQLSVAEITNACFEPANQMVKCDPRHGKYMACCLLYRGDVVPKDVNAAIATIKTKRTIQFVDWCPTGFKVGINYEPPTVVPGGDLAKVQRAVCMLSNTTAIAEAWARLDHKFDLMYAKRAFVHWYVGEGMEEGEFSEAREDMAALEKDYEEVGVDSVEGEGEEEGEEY

Regarding `C=C1C[C@@H]2CC[C@@]34C[C@H]5O[C@H]6[C@@H](O3)[C@H]3O[C@H](CC[C@@H]3O[C@H]6C5O4)CC(=O)O[C@@H]3[C@@H](C)[C@@H]4O[C@@H]5C[C@]6(C[C@@H]7O[C@]8(C[C@H](C)[C@@H]9O[C@H](CN)[C@H](O)C[C@@H]9O8)C[C@H](C)[C@@H]7O6)O[C@@H]5C[C@@H]4O[C@H]3C[C@H]3O[C@@H](CC[C@@H]1O2)C[C@@H](C)C3=C` [Compound (1)], the “expression level of ED-A fibronectin” value in the assay with EDA-fibronectin was “reduced”. This molecule also registered an IC50 in assay [1] of 0.109 nM. Also, the “effect on tubulin polymerization” value in assay [2] is “inhibited tubulin polymerization in a concentration-dependent manner”.

A word on the IC50: it is the concentration at which inhibition is half-maximal.
